Our source for the IC50 values is US8771665B2 (Cocrystal Discovery, Inc., priority 2010, dated 2014).

The experiment addresses T1, HCV1b NS5B polymerase delta 21 (Hepatitis C virus genotype 1b, UniProt P26663).
T1 construct: purified HCV1b NS5B polymerase delta 21
Kind of experiment: RNA-Dependent RNA HCV NS5B (Polymerase) Assay and IC50 Determination. Format: biochemical. The gist of the method: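 Purified NS5B Δ21 (0.6 μg) with polyA:U16 template, 10 μM UTP plus α-32P UTP in Tris-HCl pH 7.5, 5 mM MgCl2, 0.5% Triton X-100, 60 min at 23°C with varied compound concentrations. Radiolabelled RNA captured on filters, quantified by phosphorimaging; IC50 from triplicate assays.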

Structures can show the parent of a compound that is named as a salt. Where only a bound is given, the exact number is not on record here.

T1 sequence (P26663 2420-2989): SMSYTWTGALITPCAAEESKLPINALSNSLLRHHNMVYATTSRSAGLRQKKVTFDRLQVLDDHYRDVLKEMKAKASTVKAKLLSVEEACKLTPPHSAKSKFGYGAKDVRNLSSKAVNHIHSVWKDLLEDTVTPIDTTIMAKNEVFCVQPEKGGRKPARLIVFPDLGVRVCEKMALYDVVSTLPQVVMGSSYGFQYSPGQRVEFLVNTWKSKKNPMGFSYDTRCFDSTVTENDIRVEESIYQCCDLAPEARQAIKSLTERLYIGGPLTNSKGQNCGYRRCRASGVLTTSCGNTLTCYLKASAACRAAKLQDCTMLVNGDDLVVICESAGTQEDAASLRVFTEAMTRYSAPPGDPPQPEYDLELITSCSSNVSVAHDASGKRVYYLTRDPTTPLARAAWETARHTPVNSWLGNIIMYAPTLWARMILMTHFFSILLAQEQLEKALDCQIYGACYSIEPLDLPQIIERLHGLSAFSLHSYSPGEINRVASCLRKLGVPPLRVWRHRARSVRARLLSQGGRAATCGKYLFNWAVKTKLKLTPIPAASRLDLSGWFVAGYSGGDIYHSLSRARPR

In general, IC50 refers to the concentration that inhibits the measured activity by half. A high value points to weaker potency. Consider `CC1CCC(C2=C(c3cc(-c4ccccc4)sc3C(=O)O)CCN(Cc3ccncc3)C2)CC1` (stereo not shown) [Example 090, 3-[5-(4-Methyl-cyclohexyl)-1-pyridin-4-ylmethyl-1,2,3,6-tetrahydro-pyridin-4-yl]-5-phenyl-thiophene-2-carboxylic acid], for which the IC50 was below 3 µM.

`CC1CCC(C2=C(c3cc(C#CC4CC4)sc3C(=O)O)CCN(Cc3ccccn3)C2)CC1` (stereo not shown) [Example 134, 5-Cyclopropylethynyl-3-[5-(4-methyl-cyclohexyl)-1-pyridin-2-ylmethyl-1,2,3,6-tetrahydro-pyridin-4-yl]-thiophene-2-carboxylic acid] registered a concentration for half-maximal inhibition (IC50) below 3 µM.

On to `CC1CCC(C2=C(c3cc(-c4ccccc4)sc3C(=O)O)CCN(C(=O)c3nccnc3N)C2)CC1` (stereo not shown) [Example 155, 3-[1-(3-Amino-pyrazine-2-carbonyl)-5-(4-methyl-cyclohexyl)-1,2,3,6-tetrahydro-pyridin-4-yl]-5-phenyl-thiophene-2-carboxylic acid], for which the IC50 was above 10 µM.

The compound `COC(=O)c1sc(-c2ccc(NC(=O)c3cscn3)cc2)cc1C1=C(C2CCC(C)CC2)CN(C)CC1` (stereo not shown) [Example 013A] displayed an IC50 below 3 µM.

The compound `CC(=O)N1CCC(c2cc(-c3ccccc3)sc2C(=O)O)=C(C2CCC(C)CC2)C1` (stereo not shown) [Example 071, 3-[1-Acetyl-5-(4-methyl-cyclohexyl)-1,2,3,6-tetrahydro-pyridin-4-yl]-5-phenyl-thiophene-2-carboxylic acid] returned an IC50 below 3 µM.

In turn, `CC1CCC(C2=C(c3cc(-c4ccc(NC(=O)OC(C)(C)C)cc4)sc3C(=O)O)CCN(C)C2)CC1` (stereo not shown) [Example 012, 5-(4-tert-Butoxycarbonylamino-phenyl)-3-[1-methyl-5-(4-methyl-cyclohexyl)-1,2,3,6-tetrahydro-pyridin-4-yl]-thiophene-2-carboxylic acid] showed an IC50 above 10 µM.

For the compound `Cc1cc(C)n2nc(CN3CCC(c4cc(C#CC(C)(C)C)sc4C(=O)O)=C(C4CCC(C)CC4)C3)nc2n1` (stereo not shown) [Example 128, 5-(3,3-Dimethyl-but-1-ynyl)-3-[1-(5,7-dimethyl-[1,2,4]triazolo[1,5-a]pyrimidin-2-ylmethyl)-5-(4-methyl-cyclohexyl)-1,2,3,6-tetrahydro-pyridin-4-yl]-thiophene-2-carboxylic acid], the IC50 was below 3 µM.

The compound `CC1CCC(C2=C(c3cc(-c4ccccc4)sc3C(=O)O)CCN(Cc3ccc4ccccc4n3)C2)CC1` (stereo not shown) [Example 143, 3-[5-(4-Methyl-cyclohexyl)-1-quinolin-2-ylmethyl-1,2,3,6-tetrahydro-pyridin-4-yl]-5-phenyl-thiophene-2-carboxylic acid] came in with an IC50 above 10 µM.

Compound `CC1CCC(C2=C(c3cc(C#CC(C)(C)C)sc3C(=O)O)CN(CC3CCOC3)CC2)CC1` (stereo not shown) [Example 117, 5-(3,3-Dimethyl-but-1-ynyl)-3-[4-(4-methyl-cyclohexyl)-1-(tetrahydro-furan-3-ylmethyl)-1,2,5,6-tetrahydro-pyridin-3-yl]-thiophene-2-carboxylic acid] registered an IC50 below 3 µM.

The compound `CC1CCC(C2=C(c3cc(-c4ccc(-c5cc6nccc(N)n6n5)cc4)sc3C(=O)O)CCN(C)C2)CC1` (stereo not shown) [Example 132, 5-[4-(7-Amino-pyrazolo[1,5-a]pyrimidin-2-yl)-phenyl]-3-[1-methyl-5-(4-methyl-cyclohexyl)-1,2,3,6-tetrahydro-pyridin-4-yl]-thiophene-2-carboxylic acid, hydrochloride salt] came in with an IC50 below 3 µM.

On to `CC1CCC(C2=C(c3cc(-c4ccc(C5=CC6N=CC=CC6O5)cc4)sc3C(=O)O)CCN(C)C2)CC1` (stereo not shown) [Example 135, 5-[4-(3a,7a-Dihydro-furo[3,2-b]pyridin-2-yl)-phenyl]-3-[1-methyl-5-(4-methyl-cyclohexyl)-1,2,3,6-tetrahydro-pyridin-4-yl]-thiophene-2-carboxylic acid], for which the 50% inhibitory concentration (IC50) was below 3 µM.

`CC1CCC(C2=C(c3cc(-c4ccc(NC(=O)c5cscn5)cc4)sc3C(=O)OCOC(=O)OC(C)C)CCN(C)C2)CC1` (stereo not shown) [Example 106, 3-[1-Methyl-5-(4-methyl-cyclohexyl)-1,2,3,6-tetrahydro-pyridin-4-yl]-5-{4-[(thiazole-4-carbonyl)-amino]-phenyl}-thiophene-2-carboxylic acid isopropoxycarbonyloxymethyl ester]: the IC50 was above 10 µM.

As to `CCN1CCC(c2cc(-c3ccc(-c4cc5ncccn5n4)cc3)sc2C(=O)O)=C(C2CCC(C)CC2)C1` (stereo not shown) [Example 015, 3-[1-Ethyl-5-(4-methyl-cyclohexyl)-1,2,3,6-tetrahydro-pyridin-4-yl]-5-(4-pyrazolo[1,5-a]pyrimidin-2-yl-phenyl)-thiophene-2-carboxylic acid], the half-inhibitory concentration (IC50) is below 3 µM.

`CC1CCC(C2=C(c3cc(-c4ccccc4)sc3C(=O)O)CCN(C(=O)CCc3ccccc3)C2)CC1` (stereo not shown) [Example 076, 3-[5-(4-Methyl-cyclohexyl)-1-(3-phenyl-propanoyl)-1,2,3,6-tetrahydropyridin-4-yl]-5-phenyl-thiophene-2-carboxylic acid] had a half-maximal inhibitory concentration (IC50) above 10 µM.

Compound `CC1CCC(C2=C(c3cc(C#CC(C)(C)C)sc3C(=O)O)CN(C(=O)CO)CC2)CC1` (stereo not shown) [Example 170, 5-(3,3-Dimethyl-but-1-ynyl)-3-[1-(2-hydroxy-acetyl)-4-(4-methyl-cyclohexyl)-1,2,5,6-tetrahydro-pyridin-3-yl]-thiophene-2-carboxylic acid] gave an IC50 of 3 to 10 µM.

Consider `CC1CCC(C2=C(c3cc(C#CC4CCCC4)sc3C(=O)O)CN(C)CC2)CC1` (stereo not shown) [Example 176, 5-Cyclopentylethynyl-3-[1-methyl-4-(4-methyl-cyclohexyl)-1,2,5,6-tetrahydro-pyridin-3-yl]-thiophene-2-carboxylic acid], for which the half-inhibitory concentration (IC50) was below 3 µM.

For `CC1CCC(C2=C(c3cc(C#CC4CC4)sc3C(=O)O)CN(C)CC2)CC1` (stereo not shown) [Example 175, 5-Cyclopropylethynyl-3-[1-methyl-4-(4-methyl-cyclohexyl)-1,2,5,6-tetrahydro-pyridin-3-yl]-thiophene-2-carboxylic acid], the IC50 was below 3 µM.

Compound `Cc1cnc2cc(-c3ccc(-c4cc(C5=C(C6CCC(C)CC6)CN(C)CC5)c(C(=O)O)s4)cc3)nn2c1` (stereo not shown) [Example 163, 3-[1-Methyl-5-(4-methyl-cyclohexyl)-1,2,3,6-tetrahydro-pyridin-4-yl]-5-[4-(6-methyl-pyrazolo[1,5-a]pyrimidin-2-yl)-phenyl]-thiophene-2-carboxylic acid] came in with a 50% inhibitory concentration (IC50) of 3 to 10 µM.

As for `CCNC(=O)N1CCC(c2cc(-c3ccccc3)sc2C(=O)O)=C(C2CCC(C)CC2)C1` (stereo not shown) [Example 085, 3-[1-Ethylcarbamoyl-5-(4-methyl-cyclohexyl)-1,2,3,6-tetrahydro-pyridin-4-yl]-5-phenyl-thiophene-2-carboxylic acid], the concentration for half-maximal inhibition (IC50) was 3 to 10 µM.

In turn, `CC1CCC(C2=C(c3cc(-c4ccc(NC(=O)c5cscn5)cc4)sc3C(=O)OCCN(C)C)CCN(C)C2)CC1` (stereo not shown) [Example 103, 3-[1-Methyl-5-(4-methyl-cyclohexyl)-1,2,3,6-tetrahydro-pyridin-4-yl]-5-{4-[(thiazole-4-carbonyl)-amino]-phenyl}-thiophene-2-carboxylic acid 2-dimethylamino-ethyl ester] returned an IC50 below 3 µM.

`CC1CCC(C2=C(c3cc(-c4ccccc4)sc3C(=O)O)CCN(Cc3ccccn3)C2)CC1` (stereo not shown) [Example 087, 3-[5-(4-Methyl-cyclohexyl)-1-pyridin-2-ylmethyl-1,2,3,6-tetrahydro-pyridin-4-yl]-5-phenyl-thiophene-2-carboxylic acid] showed an IC50 below 3 µM.

Compound `CCN1CCC(c2cc(C#CC(C)(C)N)sc2C(=O)O)=C(C2CCC(C)CC2)C1` (stereo not shown) [Example 021, 5-(3-Amino-3-methyl-but-1-ynyl)-3-[1-ethyl-5-(4-methyl-cyclohexyl)-1,2,3,6-tetrahydro-pyridin-4-yl]-thiophene-2-carboxylic acid] yielded an IC50 below 3 µM.

`CC1CCC(C2=C(c3cc(-c4ccccc4)sc3C(=O)O)CCN(Cc3nc4ncccn4n3)C2)CC1` (stereo not shown) [Example 092, 3-[5-(4-Methyl-cyclohexyl)-1-[1,2,4]triazolo[1,5-a]pyrimidin-2-ylmethyl-1,2,3,6-tetrahydro-pyridin-4-yl]-5-phenyl-thiophene-2-carboxylic acid] showed a concentration for half-maximal inhibition (IC50) of 3 to 10 µM.

On to `CC1CCC(C2=C(c3cc(-c4ccccc4)sc3C(=O)O)CCN(Cc3ccnc(-c4ccc(F)cc4)c3)C2)CC1` (stereo not shown) [Example 147, 3-[1-[2-(4-Fluoro-phenyl)-pyridin-4-ylmethyl]-5-(4-methyl-cyclohexyl)-1,2,3,6-tetrahydro-pyridin-4-yl]-5-phenyl-thiophene-2-carboxylic acid], for which the IC50 was above 10 µM.

Compound `CC1CCC(C2=C(c3cc(-c4ccccc4)sc3C(=O)O)CCN(CCC(=O)O)C2)CC1` (stereo not shown) [Example 083, 3-[1-(2-Carboxy-ethyl)-5-(4-methyl-cyclohexyl)-1,2,3,6-tetrahydro-pyridin-4-yl]-5-phenyl-thiophene-2-carboxylic acid] showed an IC50 of 3 to 10 µM.

In turn, `CCN1CCC(c2cc(C#CC(C)(C)N(C)C)sc2C(=O)O)=C(C2CCC(C)CC2)C1` (stereo not shown) [Example 023, 5-(3-Dimethylamino-3-methyl-but-1-ynyl)-3-[1-ethyl-5-(4-methyl-cyclohexyl)-1,2,3,6-tetrahydro-pyridin-4-yl]-thiophene-2-carboxylic acid] yielded an IC50 below 3 µM.

The compound `CC1CCC(C2=C(c3cc(-c4ccccc4)sc3C(=O)O)CCN(C(=O)c3cncn3C)C2)CC1` (stereo not shown) [Example 156, 3-[5-(4-Methyl-cyclohexyl)-1-(3-methyl-3H-imidazole-4-carbonyl)-1,2,3,6-tetrahydro-pyridin-4-yl]-5-phenyl-thiophene-2-carboxylic acid] registered a half-maximal inhibitory concentration (IC50) above 10 µM.

Regarding `CC1CCC(C2=C(c3cc(-c4ccccc4)sc3C(=O)O)CCN(CC(=O)O)C2)CC1` (stereo not shown) [Example 082, 3-[1-Carboxymethyl-5-(4-methyl-cyclohexyl)-1,2,3,6-tetrahydro-pyridin-4-yl]-5-phenyl-thiophene-2-carboxylic acid], the IC50 lay within 3 to 10 µM.
